Consider one compound from patent US20050175580A1, “Compositions and methods for enhancing cytokine activity and treating hypotension associated with the administration of cytokines” (priority 2001, published 2005).

The subject of series [1] is mice. Kind of series: IL-2 induced hypotension in mice, systolic blood pressure via tail cuff. Type of series: in vivo. The procedure: Parallel groups of untreated mice or mice receiving M40403 alone (at the highest dose tested of 3 mg/kg) served as a control. […] Analysis was performed using Chart 3.6.1 software (AD instruments).
Preliminary experiments were also performed with M40401.

The test system of series [2] is mice. In words: IL-2 dose escalation study with or without M40403 (deaths, blood pressure). Type of series: in vivo. The procedure: Analysis was performed using Chart 3.6.1 software (AD instruments).
Series [3] deals with murine (mouse) LAK cell. In words: LAK cell induction in vitro, murine splenocytes activated with IL-2, cytotoxicity against RD-995 tumor, trypan blue viability. Type of series: cell-based. The procedure:
Non-M40403 exposed cultures served as a positive control. After 72 h, LAK cells were harvested and cell viability evaluated. LAK cells cytotoxicity was tested against RD-995 tumor in triplicate samples at varying effector to target cell ratios (expressed as mean±SD) using previously published methods (Yim et al., 1994; Samlowski et al., 1998).
Cell viability was assessed by trypan blue exclusion. Viability remained at 100% of control at up to 10 μM M40403 (not shown).

In series [4] the test system is LAK cells. In words: LAK cell induction in vivo, 51Cr release of lymph node and spleen cells against RD-995 tumor. Also on record: species or system mice. The procedure: Parallel groups of untreated mice or mice receiving M40403 alone (at the highest dose tested of 3 mg/kg) served as a control. […] A single cell suspension was prepared from the lymph nodes and spleen from each animal, and serial dilutions made (starting from 10^6). Cytolytic activity of lymph node and spleen cells was tested against ^51Cr-radiolabeled RD-995 tumor (NK resistant, LAK sensitive, 10^4 cells) in a standard 4h ^51Cr release assay at a varying effector to target cell ratio (in triplicate). […] Statistical comparison of specific cytotoxicity (e.g. at 100:1 effector to target ratio) and lytic units per organ will be performed using Student's t-test, using Bonferroni's correction for multiple analyses.

Series [5] relates to RD-995 tumor. In words: Rosenberg tumor model, RD-995 pulmonary metastases. Type of series: in vivo, mice. The procedure: RD-995 is a skin fibrosarcoma that was induced by chronic ultraviolet light exposure of a C3H/HeN mouse (Samlowski et al., 1995). This tumor grows in non-immunosuppressed mice, and is thus termed a “progressor” tumor.
Once stabilized, mice were injected with 10^6 RD-995 tumor cells intravenously. […] On day 14, mice were sacrificed by anesthetic overdose. After anterior thoracotomy, India ink solution (30 ml India ink, 4 drops ammonium hydroxide in 170 ml distilled water) was instilled into the trachea of each mouse via 18 ga. needle, until the lungs were completely expanded. Lungs were then excised and bleached in 5-10 ml Fekete's solution (100 ml 70% ethanol, 10 ml formaldehyde, 5 ml glacial acetic acid) for at least 24 h prior to enumeration of metastases using a magnifying lens.

The test system of series [6] is Meth A tumor. Kind of series: Meth A fibrosarcoma tumor model (malignant ascites), survival. Type of series: in vivo, BALB/c mice. The text has this:
Meth A was induced in a BALB/c mouse by methylcholanthrene treatment (obtained from Lloyd Old, MSKCC). This very aggressive fibrosarcoma is one of the rare tumors resistant to LAK cell mediated cytolysis in vitro. […] See Yim et al., J. Immunol. 155: 4382-4390 (1995).
Survival of the mice was used as the major endpoint to assess therapeutic responses.

Series [7] relates to NO. Kind of series: Inhibition of NO (not shown).
The test system of series [8] is Meth A tumor. In words: NO-mediated apoptosis of Meth A tumor (not shown). Type of series: cell-based, mouse.
The mark [9] stands for this setting: M40403 at highest dose, 3 mg/kg b.i.d. for 5 days.
Where [10] appears, read: M40403 3 mg/kg i.p. b.i.d. in conjunction with IL-2 180,000 IU for 5 days.

Each structure is given as a SMILES string. “Also recorded” adds a separate entry of the source.

With `[Cl-].[Cl-].[Mn+2].c1cc2nc(c1)CN[C@@H]1CCCC[C@H]1NCCN[C@@H]1CCCC[C@H]1NC2` [M40403], in series [1] (setting [9]), the “effect on systolic blood pressure” value is recorded as “no effect on systolic blood pressure” and the signs of toxicity entry was “no apparent signs of toxicity”. Further, the “reversal / attenuation of IL-2 induced hypotension” value in series [1] (SOD mimetic i.p. b.i.d. in conjunction with IL-2 180,000 IU for 5 days) is given as “attenuated in a dose-dependent manner”. In series [1] (b.i.d. with IL-2 for 5 days), the “dose at which maximal / full reversal of IL-2 induced hypotension was obtained” value is 3 mg/kg. In addition, the “Mean Systolic BP” value in series [1] (mice, n=6 per group, IL-2 180,000 IU i.p. twice daily for 5 days, M40403 alone at 3 mg/kg, tail cuff two hours after last dose of IL-2) was 111.21. In addition, the “systolic BP, mean” value in series [1] (mice, n=6 per group, IL-2 180,000 IU i.p. twice daily for 5 days, M40403 alone at 3 mg/kg, two hours after last dose of IL-2) is recorded as 111±45 mmHg. For the same compound, the “blood pressure under escalating doses of IL-2” value in series [2] (M40403 3 mg/kg i.p. b.i.d. in conjunction with IL-2) is reported as “allowed BP to be maintained”. Moreover, the deaths in series [2] (M40403 3 mg/kg i.p. b.i.d. in conjunction with IL-2, all doses of IL-2 (180,000-400,000 IU)) was 0 deaths of 6 mice. The “effect on murine LAK cell activation by IL-2” value in series [3] (M40403 0-10 μM during IL-2 activation (6000 IU/ml rhIL-2), 72 h) is “did not adversely affect; also recorded: do not adversely affect”. Moreover, the “dose dependence of LAK cell activation” value in series [3] (increasing concentrations of M40403 during IL-2 activation) is recorded as “dose-dependent increase”. For the same compound, the cell viability in series [3] (up to 10 μM M40403, trypan blue exclusion) is 100 % of control. For the same compound, in series [4] (setting [10]), the “IL-2 induced LAK cells activation in vivo, lymph nodes” value is listed as “significantly potentiated” and the “IL-2 induced LAK cells activation in vivo, spleen” value was “significantly potentiated”. In addition, in series [4] (M40403 by itself, 3 mg/kg), the “LAK cell induction in vivo” value was “did not increase”. In addition, the “effect on the anti-tumor effects of IL-2” value in series [5] (M40403 3 mg/kg concurrently with IL-2) is reported as “did not affect the anti-tumor effects of IL-2”. The “number of tumor nodules in lungs” value in series [5] (single agent, IL-2 180,000 IU i.p. every 12 h for 5 days or M40403 3 mg/kg, day 14) is “completely eliminated”. For the same compound, in series [6] (IL-2 180,000 IU s.c. with M40403 3 mg/kg s.c.), the “IL-2 induced anti-tumor responses, combination of IL-2 with M40403” value is listed as “improves IL-2 induced anti-tumor responses”. The effect on survival entry in series [6] (M40403 itself, 3 mg/kg s.c.) is “did not affect survival”. Further, in series [7], the “inhibition of NO” value is “does not inhibit”. For the same compound, the “effect on NO-mediated apoptosis of Meth A tumor” value in series [8] is given as “does not affect”.
